Test results: US11602534B2, “Pyrimidine derivative kinase inhibitors” (HEFEI INSTITUTES OF PHYSICAL SCIENCE, CHINESE ACADEMY OF …, priority 2017, dated 2023)
Where a name gives a salt, the structure may show the parent alone.

Tests used:
BaF3 = experiment: Proliferation of BaF3 cells, CCK8 cell viability assay; format: cell-based; settings: Mus musculus, 72 hours
Text: (§1) In this example the following cells were used: […] (purchased from ATCC), mouse P210-BaF3 (stably expressing BCR-ABL mutant activated kinase), mouse P210/T315I-BaF3 (stably expressing BCR-ABL/T315I mutant activated kinase), mouse FLT3-ITD-BaF3 (stably expressing FLT3/ITD mutant activated kinase), mouse TEL-FLT3-BaF3 (stably expressing FLT3 kinase), mouse TEL-cKIT-BaF3 (stably expressing cKIT kinase), mouse BaF3-tel/T670I-cKit (stably expressing cKIT/T670I mutant activated kinase), mouse Tel-VEGFR2-BaF3 (stably expressing VEGFR2 kinase), mouse Tel-PDGFRα-BaF3 (stably expressing PDGFRα kinase), mouse Tel-PDGFRβ-BaF3 (stably expressing PDGFRβ kinase), mouse Tel-RET-BaF3 (stably expressing RET kinase). The above cell lines were all constructed by our laboratory according to the following method: the kinase region sequences of human P210, P210/T315I, FLT3/ITD, FLT3, cKIT, cKIT/T670I, VEGFR2, PDGFRα, PDGFRβ, RET were respectively amplified by PCR, and inserted into MSCV-Puro vectors having N-terminal TEL or TPR fragments (Clontech). The vectors were stably transfected into mouse BaF3 cells by means of retrovirus, and the growth factor IL-3 were removed, eventually obtaining cell lines that depend on transferred protein P210, P210/T315I, FLT3/ITD, FLT3, cKIT, cKIT/T670I, VEGFR2, PDGFRα, PDGFRβ, or RET.
(§2) GI50 (unit: μM) was calculated by quantifying the number of living cells based on quantitative measurement of reductive dehydrogenase in living cells with CCK8 cell viability assay kit (Bestbio, China).

TEL-PDGFRβ-BaF3 = experiment: Proliferation of TEL-PDGFRβ-BaF3 cells, CCK8 cell viability assay; format: cell-based; settings: Mus musculus, 72 hours, stably expressing PDGFRβ kinase
Text: as §1, §2

Tel-RET-BaF3 = experiment: Proliferation of Tel-RET-BaF3 cells, CCK8 cell viability assay; format: cell-based; settings: Mus musculus, 72 hours, stably expressing RET kinase
Text: as §1, §2

TEL-VEGFR2-BaF3 = experiment: Proliferation of TEL-VEGFR2-BaF3 cells, CCK8 cell viability assay; format: cell-based; settings: Mus musculus, 72 hours, stably expressing VEGFR2 kinase
Text: as §1, §2

Tel-FLT3-BaF3 = experiment: Proliferation of Tel-FLT3-BaF3 cells, CCK8 cell viability assay; format: cell-based; settings: Mus musculus, 72 hours, stably expressing FLT3 kinase
Text: as §1, §2

TEL-PDGFRα-BaF3 = experiment: Proliferation of TEL-PDGFRα-BaF3 cells, CCK8 cell viability assay; format: cell-based; settings: Mus musculus, 72 hours, stably expressing PDGFRα kinase
Text: as §1, §2

FLT3-ITD-BaF3 = experiment: Proliferation of FLT3-ITD-BaF3 cells, CCK8 cell viability assay; format: cell-based; settings: Mus musculus, 72 hours, stably expressing FLT3/ITD
Text: as §1, §2

Tel-cKit-BaF3 = experiment: Proliferation of Tel-cKit-BaF3 cells, CCK8 cell viability assay; format: cell-based, mouse; settings: Mus musculus; 72 hours, CCK8; stably expressing cKIT kinase
Text: as §1, §2

Tel-cKit/T670I-BaF3 = experiment: Proliferation of Tel-cKit/T670I-BaF3 cells, CCK8 cell viability assay; format: cell-based; settings: Mus musculus, 72 hours, stably expressing cKIT/T670I
Text: as §1, §2

P210-BaF3 = experiment: Proliferation of P210-BaF3 cells, CCK8 cell viability assay; format: cell-based; settings: Mus musculus, 72 hours, stably expressing BCR-ABL mutant activated kinase
Text: as §1, §2

P210/T315I-BaF3 = experiment: Proliferation of P210/T315I-BaF3 cells, CCK8 cell viability assay; format: cell-based; settings: Mus musculus, 72 hours, stably expressing BCR-ABL/T315I
Text: as §1, §2

Compound	GI50 (BaF3) [nM]	GI50 (TEL-PDGFRβ-BaF3) [nM]	GI50 (Tel-RET-BaF3) [nM]	GI50 (TEL-VEGFR2-BaF3) [nM]	GI50 (Tel-FLT3-BaF3) [nM]	GI50 (TEL-PDGFRα-BaF3) [nM]	GI50 (FLT3-ITD-BaF3) [nM]	GI50 (Tel-cKit-BaF3) [nM]	GI50 (Tel-cKit/T670I-BaF3) [nM]	GI50 (P210-BaF3) [nM]	GI50 (P210/T315I-BaF3) [nM]
Cc1ccc(NC(=O)Nc2ccc(Oc3cc(N4CCOC[C@H]4C)ncn3)cc2)cc1C(F)(F)F [Example 114, (R)-1-(4-methyl-3-(trifluoromethyl)phenyl)-3-(4-((6-(3-methylmorpholino)pyrimidin-4-yl)oxy)phenyl)urea]	6050	30	3830	1330	1090	5	37	287	1010	–	–
CC(=O)Nc1cc(Oc2ccc(NC(=O)C(O)c3ccccc3F)cc2)ncn1 (stereo not drawn) [Example 63, N-[4-(6-acetylamino-pyrimidin-4-yloxy)-phenyl]-2-(2-fluoro-phenyl)-2-hydroxy-acetamide]	> 10000	5750	–	3430	4680	476	325	> 10000	> 10000	> 10000	> 10000
CC(=O)Nc1cc(Oc2ccc(NC(=O)Cc3ccc(C(C)(C)C)cc3)cc2)ncn1 [Example 65, N-[4-(6-acetylamino-pyrimidin-4-yloxy)-phenyl]-2-(4-tert-butyl-phenyl)-acetamide]	> 10000	84	–	277	612	12	24	376	1070	> 10000	> 10000
Cc1ccc(NC(=O)Nc2ccc(Oc3cc(N4CCN(C(=O)OC(C)(C)C)C[C@H]4CO)ncn3)cc2)cc1C(F)(F)F [Example 110, (S)-3-(hydroxymethyl)-4-(6-(4-(3-(4-methyl-3-(trifluoromethyl)phenyl)ureido)phenoxy)pyrimidin-4-yl)piperazin-1-tert-butyl Formate]	> 10000	270	6210	4620	4860	60	182	2250	5290	–	–
Cc1ccc(NC(=O)Nc2ccc(Oc3cc(NCC(N)=O)ncn3)cc2)cc1C(F)(F)F [Example 142, 2-(6-{4-[3-(4-methyl-3-trifluoromethyl-phenyl)-ureido]-phenoxy}-pyrimidin-4-ylamino)-acetamide]	> 10000	8	–	9670	162	7	54	736	1840	> 10000	> 10000
CC(C)(C)C(=O)Nc1cc(Oc2ccc(NC(=O)Cc3ccc(C(F)(F)F)cc3)cc2)ncn1 [Example 52, 2,2-dimethyl-N-(6-{4-[2-(4-trifluoromethyl-phenyl)-acetylamino]-phenoxy}-pyrimidin-4-yl)-propanamide]	> 10000	92	–	3420	3000	33	374	2260	5680	> 10000	> 10000
Cc1ccc(NC(=O)Nc2ccc(Oc3cc(NC4CCNCC4)ncn3)cc2)cc1C(F)(F)F [Example 103, 1-(4-methyl-3-trifluoromethyl-phenyl)-3-{4-[6-(piperidin-4-ylamino)-pyrimidin-4-yloxy]-phenyl}-urea]	> 10000	355	> 10000	2890	480	70	190	3220	9530	–	–
CC[C@@H]1CN(C(=O)OC(C)(C)C)CCN1c1cc(Oc2ccc(NC(=O)Nc3ccc(C)c(C(F)(F)F)c3)cc2)ncn1 [Example 111, (R)-3-ethyl-4-(6-(4-(3-(4-methyl-3-(trifluoromethyl)phenyl)ureido)phenoxy)pyrimidin-4-yl)piperazin-1-tert-butyl formate]	> 10000	690	> 10000	1740	6160	190	141	6050	8600	–	–
CCC(=O)NCCNc1cc(Nc2ccc(CC(=O)Nc3ccc(C)c(C(F)(F)F)c3)cc2)ncn1 [Example 139, N-[2-(6-{4-[(4-methyl-3-trifluoromethyl-phenylcarbamoyl)-methyl]-phenylamino}-pyrimidin-4-ylamino)-ethyl]-propanamide]	> 10000	34	–	8910	1000	319	432	> 10000	9980	> 10000	9800
Cc1ccc(NC(=O)Cc2ccc(Oc3cc(NCCN)ncn3)cc2)cc1C(F)(F)F [Example 137, 2-(4-((6-((2-aminoethyl)amino)pyrimidin-4-yl)oxy)phenyl)-N-(4-methyl-3-(trifluoromethyl)phenyl)acetamide]	> 10000	34	–	149	40	11	12	465	323	> 10000	9930
CC(=O)Nc1cc(Sc2ccc(NC(=O)Cc3ccccc3C(F)(F)F)cc2)ncn1 [Example 67, N-[4-(6-acetylamino-pyrimidin-4-ylsulfanyl)-phenyl]-2-(2-trifluoromethyl-phenyl)-acetamide]	> 10000	312	–	7820	1470	14	291	6170	> 10000	8080	9790
Cc1ccc(NC(=O)Cc2ccc(Nc3cc(NCCN)ncn3)cc2)cc1C(F)(F)F [Example 138, 2-{4-[6-(2-amino-ethylamino)-pyrimidin-4-ylamino]-phenyl}-N-(4-methyl-3-trifluoromethyl-phenyl)-acetamide]	> 10000	79	–	711	34	17	14	2600	377	> 10000	> 10000
COc1cc(CC(=O)Nc2ccc(Oc3cc(NC(C)=O)ncn3)cc2)cc(OC)c1OC [Example 62, N-[4-(6-acetylamino-pyrimidin-4-yloxy)-phenyl]-2-(3,4,5-trimethoxy-phenyl)-acetamide]	> 10000	231	–	1180	390	45	50	810	6580	> 10000	> 10000
C=CC(=O)NCCNc1cc(Nc2ccc(CC(=O)Nc3ccc(C)c(C(F)(F)F)c3)cc2)ncn1 [Example 140, N-[2-(6-{4-[(4-methyl-3-trifluoromethyl-phenylcarbamoyl)-methyl]-phenylamino}-pyrimidin-4-ylamino)-ethyl]-acrylamide]	> 10000	170	–	9670	1110	131	377	> 10000	> 10000	> 10000	9610
COc1ccc(CC(=O)Nc2ccc(Oc3cc(NC(C)=O)ncn3)cc2)cc1OC [Example 61, N-[4-(6-acetylamino-pyrimidin-4-yloxy)-phenyl]-2-(3,4-dimethoxy-phenyl)-acetamide]	5710	233	–	1780	1390	74	63	4890	> 10000	5610	9770
CC(=O)Nc1cc(Oc2ccc(NC(=O)Cc3ccc(C)c(C)c3)cc2)ncn1 [Example 60, N-[4-(6-acetylamino-pyrimidin-4-yloxy)-phenyl]-2-(3,4-dimethyl-phenyl)-acetamide]	> 10000	26	–	433	195	11	14	917	1880	> 10000	> 10000
